Where a SMILES comes first, the peptide text is derived from it. Bridges are numbered along the chain shown (N, C = ends). [ ]: non-standard residue; d: D form. hArg = N=C(N)NCCCC[C@H](N)C(=O)O
How the values were obtained:
human MCH-1R = human MCH-1R (Homo sapiens, UniProt Q99705); assay: Aequorin bioluminescence functional assay, MCH-1R; settings: for MCH-1R Activation %: % Activation at 10 μM, aequorin functional assay
human MCH-R2 = human MCH-R2 (Homo sapiens, UniProt Q969V1); assay: Aequorin bioluminescence functional assay, MCH-2R; settings: for EC50: MCH-2R EC50 (nM); for EC50 / MCH-2R Activation %: aequorin functional assay; for MCH-2R Activation %: % Activation at 10 μM; for selective activity at MCH-2R over MCH-1R: greater binding and/or activation at MCH-2R than at MCH-1R
human MCH-2R = human MCH-2R (Homo sapiens, UniProt Q969V1); assay: Radiolabeled MCH-R binding assay (SPA based), MCH-2R; settings: MCH-2R IC50 (nM)
Chain of human MCH-2R (Q969V1 whole entry): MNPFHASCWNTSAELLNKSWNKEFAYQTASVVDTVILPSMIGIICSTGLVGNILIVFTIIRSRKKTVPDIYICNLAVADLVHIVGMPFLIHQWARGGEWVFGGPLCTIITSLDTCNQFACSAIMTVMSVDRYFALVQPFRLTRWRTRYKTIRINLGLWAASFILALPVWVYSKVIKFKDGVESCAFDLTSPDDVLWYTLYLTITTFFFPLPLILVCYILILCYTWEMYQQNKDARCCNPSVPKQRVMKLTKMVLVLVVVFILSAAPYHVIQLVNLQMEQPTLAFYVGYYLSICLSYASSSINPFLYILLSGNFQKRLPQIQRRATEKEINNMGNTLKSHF

Chain of human MCH-R2 (Q969V1 whole entry): as above
Chain of human MCH-1R (Q99705 whole entry): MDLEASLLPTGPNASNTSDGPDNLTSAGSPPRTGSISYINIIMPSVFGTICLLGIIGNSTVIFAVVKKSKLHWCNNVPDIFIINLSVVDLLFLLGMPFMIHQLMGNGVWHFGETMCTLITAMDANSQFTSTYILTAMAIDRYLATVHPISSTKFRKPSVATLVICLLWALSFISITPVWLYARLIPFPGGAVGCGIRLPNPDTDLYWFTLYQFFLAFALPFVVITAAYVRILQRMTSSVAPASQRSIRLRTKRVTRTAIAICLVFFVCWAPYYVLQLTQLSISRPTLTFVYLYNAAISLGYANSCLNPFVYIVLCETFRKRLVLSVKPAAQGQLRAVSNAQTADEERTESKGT

| Structure (SMILES) | EC50 (human MCH-1R) | MCH-1R Activation % (human MCH-1R; Table 1) | EC50 (human MCH-R2; Table 1, 293-AEQ17 cells) | MCH-2R Activation % (human MCH-R2; Table 1) | selective activity at MCH-2R over MCH-1R (human MCH-R2) | MCH-1R Activation % (human MCH-1R; Table 3) | other results |
| --- | --- | --- | --- | --- | --- | --- | --- |
| CSCC[C@@H]1NC(=O)[C@@H](NC(=O)[C@H](CCCNC(=N)N)NC(C)=O)CSSC[C@@H](C(N)=O)NC(=O)[C@@H]2CCCN2C(=O)[C@H](CCCNC(=N)N)NC(=O)[C@H](Cc2ccc(O)cc2)NC(=O)[C@H](C(C)C)NC(=O)[C@H](CCCCNC(=N)N)NC(=O)[C@@H](C)NC(=O)[C@H](CC(C)C)NC1=O [compound 36] (Ac-RCML[dA][hArg]VYRPC-NH2; disulfide 2-11) | > 10000 nM | 0.1% | 19 nM | 74% | selectively active | – | IC50 (human MCH-2R; Table 1, inhibition of [125I]-human MCH (Phe13, Tyr19) binding): 0.9 nM |
| CSCC[C@@H]1NC(=O)[C@@H](NC(=O)[C@H](CCCNC(=N)N)NC(C)=O)CSSC[C@@H](C(N)=O)NC(=O)[C@@H]2CCCN2C(=O)[C@H](CCCNC(=N)N)NC(=O)[C@H](Cc2ccc(O)cc2)NC(=O)[C@H](C(C)C)NC(=O)[C@H](CCCNC(=N)N)NC(=O)C(C)(C)NC(=O)[C@H](CC(C)C)NC1=O [compound 11] | – | 22% | 24 nM | 104% | selectively active | – | – |
| CSCC[C@@H]1NC(=O)[C@@H](NC(=O)[C@H](CCCNC(=N)N)NC(C)=O)CSSC[C@@H](C(N)=O)NC(=O)[C@@H]2CCCN2C(=O)[C@H](CCCNC(=N)N)NC(=O)[C@H](Cc2ccc(O)cc2)NC(=O)[C@H](C(C)C)NC(=O)[C@H](CCCNC(=N)N[N+](=O)[O-])NC(=O)CNC(=O)[C@H](CC(C)C)NC1=O [compound 25] | > 1000 nM | – | > 10000 nM | 39% | selectively active | – | – |
| CSCC[C@@H]1NC(=O)[C@@H](NC(=O)[C@H](CCCNC(=N)N)NC(C)=O)CSSC[C@@H](C(N)=O)NC(=O)[C@@H]2CCCN2C(=O)[C@H](CCCNC(=N)N)NC(=O)[C@H](Cc2ccc(O)cc2)NC(=O)[C@H](C(C)C)NC(=O)[C@H](CCCNC(=N)N)NC(=O)[C@@H](Cc2ccccc2)NC(=O)[C@H](CC(C)C)NC1=O [compound 17] | > 10000 nM | 5% | 25 nM | 102% | selectively active | – | – |
| CSCC[C@H](NC(=O)[C@H](CC(=O)O)NC(=O)[C@H](Cc1ccccc1)NC(=O)[C@@H](N)CC(=O)O)C(=O)N[C@@H](CC(C)C)C(=O)N[C@@H](CCCNC(=N)N)C(=O)N[C@H]1CSSC[C@@H](C(=O)N[C@@H](Cc2c[nH]c3ccccc23)C(=O)N[C@@H](CCC(N)=O)C(=O)N[C@H](C(=O)O)C(C)C)NC(=O)[C@@H]2CCCN2C(=O)[C@H](CCCNC(=N)N)NC(=O)[C@H](Cc2ccc(O)cc2)NC(=O)[C@H](C(C)C)NC(=O)[C@H](CCCNC(=N)N)NC(=O)CNC(=O)[C@H](CC(C)C)NC(=O)[C@H](C)NC1=O [compound 47] (H-DFDMLRCALGRVYRPCWQV-OH; disulfide 7-16; N-terminus and C-terminus assumed) | – | – | – | – | – | 56% | MCH-2R Activation % (human MCH-R2; Table 3): 94%; IC50 (human MCH-2R; Table 3): 40 nM |
| CSCC[C@@H]1NC(=O)[C@@H](NC(=O)[C@H](CCCNC(=N)N)NC(C)=O)CSSC[C@@H](C(N)=O)NC(=O)[C@@H]2CCCN2C(=O)[C@H](CCCNC(=N)N)NC(=O)[C@H](Cc2ccc(O)cc2)NC(=O)[C@H](C(C)C)NC(=O)[C@H](CCCNC(=N)N)NC(=O)[C@@H](C)NC(=O)[C@H](CC(C)C)NC1=O [compound 13] | – | 40% | 16 nM | 103% | selectively active | – | – |
| CSCC[C@@H]1NC(=O)[C@@H](NC(=O)[C@H](CCCNC(=N)N)NC(C)=O)CSSC[C@@H](C(N)=O)NC(=O)[C@@H]2CCCN2C(=O)[C@H](CCCNC(=N)N)NC(=O)[C@H](Cc2ccc(O)cc2)NC(=O)[C@H](C(C)C)NC(=O)[C@H](CCCNC(=N)N)NC(=O)[C@H](CC(C)C)NC(=O)[C@H](CC(C)C)NC1=O [compound 8] | – | 106% | – | 80% | – | – | – |
| CSCC[C@@H]1NC(=O)[C@@H](NC(=O)[C@H](CCCNC(=N)N)NC(=O)[C@H](CC(C)C)NC(=O)[C@H](CCSC)NC(=O)[C@H](CC(=O)O)NC(=O)[C@H](Cc2ccccc2)NC(=O)[C@H](C)N)CSSC[C@@H](C(=O)N[C@@H](Cc2c[nH]c3ccccc23)C(=O)N[C@@H](CCC(N)=O)C(=O)N[C@H](C(=O)O)C(C)C)NC(=O)[C@@H]2CCCN2C(=O)[C@H](CCCNC(=N)N)NC(=O)[C@H](Cc2ccc(O)cc2)NC(=O)[C@H](C(C)C)NC(=O)[C@H](CCCNC(=N)N)NC(=O)CNC(=O)[C@H](CC(C)C)NC1=O [compound 41] (H-AFDMLRCMLGRVYRPCWQV-OH; disulfide 7-16; N-terminus and C-terminus assumed) | – | – | – | – | – | 96% | MCH-2R Activation % (human MCH-R2; Table 3): 96% |
| CC(=O)N[C@@H](CCCNC(=N)N)C(=O)N[C@H]1CSSC[C@@H](C(N)=O)NC(=O)[C@@H]2CCCN2C(=O)[C@H](CCCNC(=N)N)NC(=O)[C@H](Cc2ccc(O)cc2)NC(=O)[C@H](C(C)C)NC(=O)[C@H](CCCCNC(=N)N)NC(=O)[C@@H](C)NC(=O)[C@H](CC(C)C)NC(=O)[C@H](C)NC1=O [compound 38] | > 10000 nM | 20% | – | 49% | – | – | – |
| CSCC[C@@H]1NC(=O)[C@@H](NC(=O)[C@H](CCCNC(=N)N)NC(C)=O)CSSC[C@@H](C(N)=O)NC(=O)[C@@H]2CCCN2C(=O)[C@H](CCCNC(=N)N)NC(=O)[C@H](Cc2ccc(O)cc2)NC(=O)[C@H](C(C)C)NC(=O)[C@H](CCCNC(=N)N)NC(=O)[C@@H](CC2CCCCC2)NC(=O)[C@H](CC(C)C)NC1=O [compound 16] | > 10000 nM | 0.1% | – | – | selectively active | – | – |
| CSCC[C@@H]1NC(=O)[C@@H](NC(=O)[C@H](CCCNC(=N)N)NC(=O)[C@H](CC(C)C)NC(=O)[C@H](CCSC)NC(=O)[C@H](CC(=O)O)NC(=O)[C@H](Cc2ccccc2)NC(=O)[C@@H](N)CC(=O)O)CSSC[C@@H](C(=O)N[C@@H](Cc2c[nH]c3ccccc23)C(=O)N[C@@H](CCC(N)=O)C(=O)N[C@@H](C)C(=O)O)NC(=O)[C@@H]2CCCN2C(=O)[C@H](CCCNC(=N)N)NC(=O)[C@H](Cc2ccc(O)cc2)NC(=O)[C@H](C(C)C)NC(=O)[C@H](CCCNC(=N)N)NC(=O)CNC(=O)[C@H](CC(C)C)NC1=O [compound 56] (H-DFDMLRCMLGRVYRPCWQA-OH; disulfide 7-16; N-terminus and C-terminus assumed) | – | – | – | – | – | 100% | MCH-2R Activation % (human MCH-R2; Table 3): 99% |
| CSCC[C@@H]1NC(=O)[C@@H](NC(=O)[C@H](CCCNC(=N)N)NC(C)=O)CSSC[C@@H](C(N)=O)NC(=O)[C@@H]2CCCN2C(=O)[C@H](CCCNC(=N)N)NC(=O)[C@H](Cc2ccc(O)cc2)NC(=O)[C@H](C(C)C)NC(=O)[C@H](CCCNC(=N)N)NC(=O)[C@H](c2ccccc2)NC(=O)[C@H](CC(C)C)NC1=O [compound 12] | > 10000 nM | 0.1% | 140 nM | 80% | selectively active | – | – |
| CSCC[C@@H]1NC(=O)[C@@H](NC(=O)[C@H](CCCNC(=N)N)NC(=O)[C@H](CC(C)C)NC(=O)[C@H](CCSC)NC(=O)[C@H](CC(=O)O)NC(=O)[C@H](Cc2ccccc2)NC(=O)[C@@H](N)CC(=O)O)CSSC[C@@H](C(=O)N[C@@H](Cc2c[nH]c3ccccc23)C(=O)N[C@@H](CCC(N)=O)C(=O)N[C@H](C(=O)O)C(C)C)NC(=O)[C@@H]2CCCN2C(=O)[C@H](CCCNC(=N)N)NC(=O)[C@H](C)NC(=O)[C@H](C(C)C)NC(=O)[C@H](CCCNC(=N)N)NC(=O)CNC(=O)[C@H](CC(C)C)NC1=O [compound 51] (H-DFDMLRCMLGRVARPCWQV-OH; disulfide 7-16; N-terminus and C-terminus assumed) | – | – | – | – | – | 20% | EC50 (human MCH-R2; Table 3): > 1000 nM |
| CSCC[C@@H]1NC(=O)[C@@H](NC(=O)[C@H](CCCNC(=N)N)NC(C)=O)CSSC[C@@H](C(N)=O)NC(=O)[C@@H]2CCCN2C(=O)[C@H](CCCNC(=N)N)NC(=O)[C@H](Cc2ccc(O)cc2)NC(=O)[C@H](C(C)C)NC(=O)[C@H](CCCNC(=N)N)NC(=O)[C@H](CO)NC(=O)[C@H](CC(C)C)NC1=O [compound 10] | – | 104% | – | 95% | – | – | – |
| CSCC[C@@H]1NC(=O)[C@@H](NC(=O)[C@H](CCCNC(=N)N)NC(=O)[C@H](CC(C)C)NC(=O)[C@H](CCSC)NC(=O)[C@H](CC(=O)O)NC(=O)[C@H](Cc2ccccc2)NC(=O)[C@@H](N)CC(=O)O)CSSC[C@@H](C(=O)N[C@@H](Cc2c[nH]c3ccccc23)C(=O)N[C@@H](CCC(N)=O)C(=O)N[C@H](C(=O)O)C(C)C)NC(=O)[C@@H]2CCCN2C(=O)[C@H](CCCNC(=N)N)NC(=O)[C@H](Cc2ccc(O)cc2)NC(=O)[C@H](C(C)C)NC(=O)[C@H](C)NC(=O)CNC(=O)[C@H](CC(C)C)NC1=O [compound 49] (H-DFDMLRCMLGAVYRPCWQV-OH; disulfide 7-16; N-terminus and C-terminus assumed) | – | – | – | – | – | 24% | EC50 (human MCH-R2; Table 3): > 1000 nM |
| CSCC[C@@H]1NC(=O)[C@@H](NC(=O)[C@H](CCCNC(=N)N)NC(C)=O)CSSC[C@@H](C(N)=O)NC(=O)[C@@H]2CCCN2C(=O)[C@H](CCCNC(=N)N)NC(=O)[C@H](Cc2ccc(O)cc2)NC(=O)[C@H](C(C)C)NC(=O)[C@H](CCCCNC(=N)N)NC(=O)CNC(=O)[C@H](CC(C)C)NC1=O [compound 24] | – | 72% | > 10000 nM | 43% | – | – | – |
